Read-outs that look alike come from different tables or passages of the source.
Target: T1, recombinant human NK3 receptor (Homo sapiens, UniProt P29371)
T1 construct: expressed in transfected cells; host or cells: HEK293 cells, transient expression; membranes
T1 sequence (P29371 1-465): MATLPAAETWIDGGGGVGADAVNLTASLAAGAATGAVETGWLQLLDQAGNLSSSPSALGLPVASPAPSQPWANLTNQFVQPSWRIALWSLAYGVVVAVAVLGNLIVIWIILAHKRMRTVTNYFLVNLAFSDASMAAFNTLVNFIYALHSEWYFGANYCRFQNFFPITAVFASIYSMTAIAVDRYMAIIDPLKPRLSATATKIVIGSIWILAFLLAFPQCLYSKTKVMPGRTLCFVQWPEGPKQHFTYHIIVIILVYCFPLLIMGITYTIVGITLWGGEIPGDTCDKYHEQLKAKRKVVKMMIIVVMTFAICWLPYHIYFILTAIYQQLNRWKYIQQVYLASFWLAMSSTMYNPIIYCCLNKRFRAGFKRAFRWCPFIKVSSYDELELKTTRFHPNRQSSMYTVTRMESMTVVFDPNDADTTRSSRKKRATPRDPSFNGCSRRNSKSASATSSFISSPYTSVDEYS
Assay: [3H]SR142801 competition binding assay

Ki (hNK-3 receptor affinity, membranes from HEK293 cells transiently expressing recombinant human NK3 receptor, [3H]SR142801, Cheng-Prussoff, read-out: Data Ki)	SMILES	Ki
	COCC(=O)N1CCC(C(=O)N2C[C@@H](N(C)C(=O)Oc3ccc(F)cc3)[C@H](c3ccc(Cl)cc3)C2)C1 (stereo partly drawn) [Example 172, {(3S,4R)-4-(4-Chloro-phenyl)-1-[1-(2-methoxy-acetyl)-pyrrolidine-3-carbonyl]-pyrrolidin-3-yl}-methyl-carbamic acid 4-fluoro-phenyl ester]	4.1 nM
47 nM	CN(C(=O)OC1CCC1)[C@@H]1CN(C(=O)C2CCN(c3ccc(C#N)cn3)CC2)C[C@H]1c1ccc(Cl)cc1 [Example 173, [(3S,4R)-4-(4-Chloro-phenyl)-1-(5′-cyano-3,4,5,6-tetrahydro-2H-[1,2′]bipyridinyl-4-carbonyl)-pyrrolidin-3-yl]-methyl-carbamic acid cyclobutyl ester]	
	CN(C(=O)OC1CC(F)(F)C1(F)F)[C@@H]1CN(C(=O)C2CCN(C(=O)C3(C)CC3)CC2)C[C@H]1c1ccc(Cl)cc1 (stereo partly drawn) [Example 175, {(3S,4R)-4-(4-Chloro-phenyl)-1-[1-(1-methyl-cyclopropanecarbonyl)-piperidine-4-carbonyl]-pyrrolidin-3-yl}-methyl-carbamic acid 2,2,3,3-tetrafluorocyclobutyl ester]	36 nM
	CN(C(=O)OC1CC(F)(F)C1(F)F)[C@@H]1CN(C(=O)C2CCN(c3ccc(C#N)cn3)CC2)C[C@H]1c1ccc(Cl)cc1 (stereo partly drawn) [Example 176, [(3S,4R)-4-(4-Chloro-phenyl)-1-(5′-cyano-3,4,5,6-tetrahydro-2H-[1,2′]bipyridinyl-4-carbonyl)-pyrrolidin-3-yl]-methyl-carbamic acid 2,2,3,3-tetrafluorocyclobutyl ester]	4.6 nM
	CC(CC(F)(F)F)OC(=O)N(C)[C@@H]1CN(C(=O)C2CCN(c3ccc(C#N)cn3)CC2)C[C@H]1c1ccc(Cl)cc1 (stereo partly drawn) [Example 177, [(3S,4R)-4-(4-Chloro-phenyl)-1-(5′-cyano-3,4,5,6-tetrahydro-2H-[1,2′]bipyridinyl-4-carbonyl)-pyrrolidin-3-yl]-methyl-carbamic acid 3,3,3-trifluoro-1-methyl-propyl ester]	18.9 nM
	CN(C(=O)Oc1ccc(F)cc1)[C@@H]1CN(C(=O)C2CCN(C3CCOCC3)C2)C[C@H]1c1ccc(Cl)cc1 (stereo partly drawn) [Example 179, {(3S,4R)-4-(4-Chloro-phenyl)-1-[1-(tetrahydro-pyran-4-yl)-pyrrolidine-3-carbonyl]-pyrrolidin-3-yl}-methyl-carbamic acid 4-fluoro-phenyl ester]	56.6 nM
	CN(C(=O)Oc1ccc(F)cc1)[C@@H]1CN(C(=O)C2CCN(c3ccc(S(C)(=O)=O)cn3)CC2)C[C@H]1c1ccc(Cl)cc1 [Example 180, [(3S,4R)-4-(4-Chloro-phenyl)-1-(5′-methanesulfonyl-3,4,5,6-tetrahydro-2H-[1,2′]bipyridinyl-4-carbonyl)-pyrrolidin-3-yl]-methyl-carbamic acid 4-fluoro-phenyl ester]	0.7 nM
	CN(C(=O)Oc1ccc(F)cc1)[C@@H]1CN(C(=O)C2CCN(c3ccc(C(F)(F)F)cn3)CC2)C[C@H]1c1ccc(Cl)cc1 [Example 181, [(3S,4R)-4-(4-Chloro-phenyl)-1-(5′-trifluoromethyl-3,4,5,6-tetrahydro-2H-[1,2′]bipyridinyl-4-carbonyl)-pyrrolidin-3-yl]-methyl-carbamic acid 4-fluoro-phenyl ester]	2.8 nM
	CC(=O)c1ccc(N2CCC(C(=O)N3C[C@@H](N(C)C(=O)Oc4ccc(F)cc4)[C@H](c4ccc(Cl)cc4)C3)CC2)nc1 [Example 182, [(3S,4R)-1-(5′-Acetyl-3,4,5,6-tetrahydro-2H-[1,2′]bipyridinyl-4-carbonyl)-4-(4-chloro-phenyl)-pyrrolidin-3-yl]-methyl-carbamic acid 4-fluoro-phenyl ester]	2 nM
	CN(C(=O)Oc1ccc(F)cc1)[C@@H]1CN(C(=O)C2CCN(c3ncccn3)CC2)C[C@H]1c1ccc(Cl)cc1 [Example 183, [(3S,4R)-4-(4-Chloro-phenyl)-1-(1-pyrimidin-2-yl-piperidine-4-carbonyl)-pyrrolidin-3-yl]-methyl-carbamic acid 4-fluoro-phenyl ester]	16 nM
